Test results: ChEMBL document CHEMBL6078668, “Synthesis and biological evaluation of lappaconitine analogues as potential anti-neuroinflammatory agents by side chain modification and scaffold hopping strategy” (Bioorg Med Chem, 2025)

Experiments:
BV-2 = assay: Anti-neuroinflammatory activity against LPS-stimulated C57BL/6 mouse BV-2 cells assessed as inhibition of NO release at 30 uM preincubated with compound for 4 hrs followed by LPS addition and measured after 24 hrs by Griess reagent based assay relative to control; format: functional; details: C57BL/6, BV-2, time 28 hrs
[1] = Cytotoxicity against C57BL/6 mouse BV-2 cells assessed as survival rate at 30 uM incubated for 24 hrs by MTT assay relative to control; format: toxicity, cell-based; details: read-out: Survival

Structure (SMILES)	inhibition at 30 µM (BV-2) [%]	viability at 24 h, 30 µM [1] [%]
CCN1C[C@]2(OC(=O)c3ccccc3NC(=O)S(=O)(=O)c3cccc(Br)c3)CC[C@H](OC)[C@]34C1[C@@H](C[C@H]23)[C@@]1(O)C[C@H](OC)[C@H]2C[C@@H]4[C@]1(O)[C@H]2OC	10	102
CCN1C[C@]2(OC(=O)c3ccccc3NC(=O)c3ccc(I)cc3)CC[C@H](OC)[C@]34C1[C@@H](C[C@H]23)[C@@]1(O)C[C@H](OC)[C@H]2C[C@@H]4[C@]1(O)[C@H]2OC	36.1	100
CCN1C[C@]2(OC(=O)c3ccccc3NC(=O)CC(C)C)CC[C@H](OC)[C@]34C1[C@@H](C[C@H]23)[C@@]1(O)C[C@H](OC)[C@H]2C[C@@H]4[C@]1(O)[C@H]2OC	16.7	102
CCN1C[C@]2(OC(=O)c3ccccc3NC(=O)S(=O)(=O)c3ccc(OCc4ccccc4)cc3)CC[C@H](OC)[C@]34C1[C@@H](C[C@H]23)[C@@]1(O)C[C@H](OC)[C@H]2C[C@@H]4[C@]1(O)[C@H]2OC	21.3	102
CCN1C[C@]2(OC(=O)c3ccccc3NC(=O)c3ccc(S(C)(=O)=O)cc3)CC[C@H](OC)[C@]34C1[C@@H](C[C@H]23)[C@@]1(O)C[C@H](OC)[C@H]2C[C@@H]4[C@]1(O)[C@H]2OC	20	103
CCN1C[C@]2(OC(=O)c3ccccc3NC(=O)S(=O)(=O)c3ccc(C#N)cc3Cl)CC[C@H](OC)[C@]34C1[C@@H](C[C@H]23)[C@@]1(O)C[C@H](OC)[C@H]2C[C@@H]4[C@]1(O)[C@H]2OC	12.5	99.4
CCCCC(CC)C(=O)Nc1ccccc1C(=O)O[C@@]12CC[C@H](OC)[C@]34C([C@@H](C[C@H]13)[C@@]1(O)C[C@H](OC)[C@H]3C[C@@H]4[C@]1(O)[C@H]3OC)N(CC)C2 (stereo not given in full)	38.2	95.9
CCN1C[C@]2(OC(=O)c3ccccc3NC(=O)S(=O)(=O)Cc3ccc([N+](=O)[O-])cc3)CC[C@H](OC)[C@]34C1[C@@H](C[C@H]23)[C@@]1(O)C[C@H](OC)[C@H]2C[C@@H]4[C@]1(O)[C@H]2OC	22.7	98.9
CCN1C[C@]2(OC(=O)c3ccccc3NC(=O)CN(C)C)CC[C@H](OC)[C@]34C1[C@@H](C[C@H]23)[C@@]1(O)C[C@H](OC)[C@H]2C[C@@H]4[C@]1(O)[C@H]2OC	20.2	94.5
CCN1C[C@]2(OC(=O)c3ccccc3NC(=O)c3ccc(Cl)cc3)CC[C@H](OC)[C@]34C1[C@@H](C[C@H]23)[C@@]1(O)C[C@H](OC)[C@H]2C[C@@H]4[C@]1(O)[C@H]2OC	32.3	105
CCN1C[C@]2(COC(=O)c3ccccc3NS(=O)(=O)c3ccc(Br)s3)CC[C@H](OC)[C@]34C1[C@@H](C[C@H]23)[C@@]1(O)C[C@H](OC)[C@H]2C[C@@H]4[C@]1(O)[C@H]2O	26.2	104
CCCCOC(=O)c1ccccc1NS(=O)(=O)c1cccc(F)c1	50.9	106
CCN1C[C@]2(OC(=O)c3ccccc3NC(C)=O)CC[C@H](OC)[C@]34C1[C@@H](C[C@H]23)[C@@]1(O)C[C@H](OC)[C@H]2C[C@@H]4[C@]1(O)[C@H]2OC	25.1	98.2
CCc1ccc(C(=O)Nc2ccccc2C(=O)O)cc1	11.9	101
CCN1C[C@]2(OC(=O)c3ccccc3NC(=O)S(=O)(=O)c3ccc(OC)c(F)c3)CC[C@H](OC)[C@]34C1[C@@H](C[C@H]23)[C@@]1(O)C[C@H](OC)[C@H]2C[C@@H]4[C@]1(O)[C@H]2OC	11.1	103
